Molecular target: phosphorylated active hERK2 enzyme (Homo sapiens (Human), UniProt P28482)
Test: Active Human ERK2 (hERK2) Activity Assay (IMAP-FP)
Type: biochemical
Conditions: Table 6, 0.5 nM hERK2, 30 μM ATP, 10 point titration, read-out: AERK2 IC50
Summary of the method: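 IMAP detection beads in buffer with 24 mM NaCl stopped the reaction, and fluorescence polarization was read after 60 min binding.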

Sequence of phosphorylated active hERK2 enzyme (P28482 whole entry): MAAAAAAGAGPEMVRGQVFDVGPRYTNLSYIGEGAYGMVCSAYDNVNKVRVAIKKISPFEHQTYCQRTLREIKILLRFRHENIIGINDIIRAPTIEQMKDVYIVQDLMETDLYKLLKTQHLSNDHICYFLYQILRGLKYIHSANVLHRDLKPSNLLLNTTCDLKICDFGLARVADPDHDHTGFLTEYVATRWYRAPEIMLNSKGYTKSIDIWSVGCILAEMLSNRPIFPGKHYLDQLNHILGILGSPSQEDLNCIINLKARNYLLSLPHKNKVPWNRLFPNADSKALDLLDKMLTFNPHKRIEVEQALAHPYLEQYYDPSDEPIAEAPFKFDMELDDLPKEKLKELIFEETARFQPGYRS

IC50 | SMILES
0.2 nM | Cn1cc2c(n1)CCN(c1n[nH]c3cc(NC(=O)N[C@@H](c4ccc(F)cc4)C(C)(C)O)ncc13)C2 [Example 126, 1-[(1S)-1-(4-fluorophenyl)-2-hydroxy-2-methylpropyl]-3-(2′-methyl-2,′4,′6,′7′-tetrahydro-1H-3,5′-bipyrazolo[4,3-c]pyridin-6-yl)urea]
0.3 nM | COC[C@@H](NC(=O)Nc1cc2[nH]nc(N3CCc4ncsc4C3)c2cn1)c1ccccc1 [Example 127, 1-[3-(6,7-dihydro[1,3]-thiazolo[5,4-c]-pyridin-5(4H)-yl)-1H-pyrazolo[4,3-c]pyridin-6-yl]-3-[(1S)-2-methoxy-1-phenylethyl]urea]
3.4 nM | C[C@@H](NC(=O)Nc1cc2[nH]nc(NC(=O)N3CC(F)(F)C3)c2cn1)c1ccc(F)cc1 [Example 128, 3,3-difluoro-N-[6-({[(1R)-1-(4-fluorophenyl)ethyl]carbamoyl}amino)-1H-pyrazolo[4,3-c]pyridin-3-yl]-azetidine-1-carboxamide]
0.4 nM | CC(C)(O)[C@@H](NC(=O)Nc1cc2[nH]nc(NC(=O)N3CC(F)(F)C3)c2cn1)c1ccc(F)cc1 [Example 129, 3,3-difluoro-N-[6-({[(1S)-1-(4-fluorophenyl)-2-hydroxy-2-methylpropyl]-carbamoyl}amino)-1H-pyrazolo[4,3-c]pyridin-3-yl]-azetidine-1-carboxamide]
0.5 nM | CC(C)(O)[C@@H](NC(=O)Nc1cc2[nH]nc(NC(=O)N3CCC3)c2cn1)c1ccc(F)cc1 [Example 130, N-[6-({[(1S)-1-(4-fluorophenyl)-2-hydroxy-2-methylpropyl]-carbamoyl}amino)-1H-pyrazolo[4,3-c]pyridin-3-yl]-azetidine-1-carboxamide]
1.5 nM | CC(C)(O)[C@@H](NC(=O)Nc1cc2[nH]nc(NC(=O)N3CCC(F)(F)C3)c2cn1)c1ccc(F)cc1 [Example 131, 3,3-difluoro-N-[6-({[(1S)-1-(4-fluorophenyl)-2-hydroxy-2-methylpropyl}-carbamoyl}amino)-1H-pyrazolo[4,3-c]pyridin-3-yl]-pyrrolidine-1-carboxamide]
4.9 nM | CC(C)(O)[C@@H](NC(=O)Nc1cc2[nH]nc(NC(=O)N3CCC(F)(F)CC3)c2cn1)c1ccc(F)cc1 [Example 132, 4,4-difluoro-N-[6-({[(1S)-1-(4-fluorophenyl)-2-hydroxy-2-methylpropyl]-carbamoyl}amino)-1H-pyrazolo[4,3-c]pyridin-3-yl]-piperidine-1-carboxamide]
2.4 nM | CC(C)(O)[C@@H](NC(=O)Nc1cc2[nH]nc(NC(=O)N3CCOCC3)c2cn1)c1ccc(F)cc1 [Example 133, N-[6-({[(1S)-1-(4-fluorophenyl)-2-hydroxy-2-methylpropyl]-carbamoyl}amino)-1H-pyrazolo[4,3-c]pyridin-3-yl]-morpholine-4-carboxamide]
8.6 nM | C[C@@H](NC(=O)Nc1cc2[nH]nc(NC(=O)N3CC(C)(O)C3)c2cn1)c1ccccc1 [Example 134, 3-hydroxy-3-methyl-N-[6-({[(1R)-1-phenylethyl]-carbamoyl}-amino)-1H-pyrazolo[4,3-c]pyridin-3-yl]-azetidine-1-carboxamide]
382 nM | CCNc1n[nH]c2c(C(F)(F)F)c(NC(=O)N[C@H](C)c3ccccc3)ncc12 [Example 135, (R)-1-(3-(ethylamino)-7-(trifluoromethyl)-1H-pyrazolo[4,3-c]pyridin-6-yl)-3-(1-phenylethyl)urea]
12.2 nM | C[C@@H](NC(=O)Nc1cc2[nH]nc3c2c(n1)CCN3)c1ccccc1 [Example 136, (R)-1-(1-phenylethyl)-3-(1,3,4,5-tetrahydropyrazolo[3,4,5-de][1,6]naphthyridin-7-yl)urea]
1.3 nM | CC(C)(O)[C@@H](NC(=O)Nc1cc2[nH]nc3c2c(n1)CCN3)c1ccccc1 [Example 137, (S)-1-(2-hydroxy-2-methyl-1-phenylpropyl)-3-(1,3,4,5-tetrahydropyrazolo[3,4,5-de][1,6]naphthyridin-7-yl)urea]
5.9 nM | C[C@@H]1Cc2nc(NC(=O)N[C@H](C)c3ccccc3)cc3[nH]nc(c23)N1 [Example 138, 1-((R)-4-methyl-1,3,4,5-tetrahydropyrazolo[3,4,5-de][1,6]naphthyridin-7-yl)-3-((R)-1-phenylethyl)urea]
5.5 nM | C[C@H]1Cc2nc(NC(=O)N[C@H](C)c3ccccc3)cc3[nH]nc(c23)N1 [Example 139, 1-((S)-4-methyl-1,3,4,5-tetrahydropyrazolo[3,4,5-de][1,6]naphthyridin-7-yl)-3-((R)-1-phenylethyl)urea]
111 nM | CC(=O)N1CCc2nc(NC(=O)N[C@H](C)c3ccccc3)cc3[nH]nc1c23 [Example 140, (R)-1-(3-acetyl-1,3,4,5-tetrahydropyrazolo[3,4,5-de][1,6]naphthyridin-7-yl)-3-(1-phenylethyl)urea]
15.4 nM | CCN1CCc2nc(NC(=O)N[C@H](C)c3ccccc3)cc3[nH]nc1c23 [Example 141, (R)-1-(3-ethyl-1,3,4,5-tetrahydropyrazolo[3,4,5-de][1,6]naphthyridin-7-yl)-3-(1-phenylethyl)urea]
1.2 nM | CC(C)N1CCc2nc(NC(=O)N[C@H](C)c3ccccc3)cc3[nH]nc1c23 [Example 142, (R)-1-(3-isopropyl-1,3,4,5-tetrahydropyrazolo[3,4,5-de][1,6]naphthyridin-7-yl)-3-(1-phenylethyl)urea]
2 nM | CNc1n[nH]c2cc(NC(=O)N[C@@H](c3ccccc3)[C@@H]3CCCO3)ncc12 [Example 144, 1-(3-(methylamino)-1H-pyrazolo[4,3-c]pyridin-6-yl)-3-((S)-phenyl((S)-tetrahydrofuran-2-yl)methyl)urea]

Continued, molecule first:

SMILES | IC50
C[C@@H](O)[C@@H](NC(=O)Nc1cc2[nH]nc(N3CCOCC3)c2c(CO)n1)c1ccc(F)cc1 [Example 108, 1-[(1S,2R)-1-(4-Fluorophenyl)-2-hydroxypropyl]-3-[4-(hydroxymethyl)-3-morpholin-4-yl-1H-pyrazolo[4,3-c]pyridin-6-yl]urea] | 0.4 nM
CC(C)(O)[C@@H](NC(=O)Nc1cc2[nH]nc(N3CCOCC3)c2c(CO)n1)c1ccccc1 [Example 109, 1-[4-(hydroxymethyl)-3-morpholin-4-yl-1H-pyrazolo[4,3-c]-pyridin-6-yl]-3-[(1S)-2-hydroxy-2-methyl-1-phenylpropyl]urea] | 0.3 nM
Cc1nc(NC(=O)N[C@@H](c2ccc(F)cc2)C(C)(C)O)cc2[nH]nc(N3CCC3)c12 [Example 110, 1-(3-azetidin-1-yl-4-methyl-1H-pyrazolo[4,3-c]-pyridin-6-yl)-3-[(1S)-1-(4-fluorophenyl)-2-hydroxy-2-methylpropyl]urea] | 1.3 nM
C[C@@H](O)[C@@H](NC(=O)Nc1cc2[nH]nc(N3CC4CC3CO4)c2cn1)c1ccccc1 (stereo partly drawn) [Example 111, 1-[(1S,2R)-2-hydroxy-1-phenylpropyl]-3-[3-(2-oxa-5-azabicyclo[2.2.1]-hept-5-yl)-1H-pyrazolo[4,3-c]-pyridin-6-yl]urea] | 0.5 nM
[2H]C([2H])([2H])C([2H])([2H])Nc1n[nH]c2cc(NC(=O)N[C@H](C)c3ccccc3)ncc12 [Example 113, (R)-1-(3-((ethyl-D5)amino)-1H-pyrazolo[4,3-c]-pyridin-6-yl)-3-(1-phenylethyl)urea] | 1.6 nM
[2H]C([2H])([2H])C(=O)Nc1n[nH]c2cc(NC(=O)N[C@H](C)c3ccccc3)ncc12 [Example 115, (R)-N-(6-(3-(1-phenylethyl)ureido)-1H-pyrazolo[4,3-c]pyridin-3-yl)(acetamide-D3)] | 0.8 nM
C[C@@H](NC(=O)Nc1cc2[nH]nc(Nc3ccc(F)cc3)c2cn1)c1ccccc1 [Example 116, 1-{3-[(4-fluorophenyl)-amino]-1H-pyrazolo[4,3-c]pyridin-6-yl}-3-[(1R)-1-phenylethyl]urea] | 94.2 nM
O=C(Nc1cc2[nH]nc(Nc3ccccc3Cl)c2cn1)N[C@@H]1CCCOc2ccccc21 [Example 119, 1-{3-[(2-chlorophenyl)-amino]-1H-pyrazolo[4,3-c]pyridin-6-yl}-3-[(5R)-2,3,4,5-tetrahydro-1-benzoxepin-5-yl]urea] | 60.1 nM
COC[C@@H](NC(=O)Nc1cc2[nH]nc(Nc3ccccc3Cl)c2cn1)c1ccccc1 [Example 120, 1-{3-[(2-chlorophenyl)-amino]-1H-pyrazolo[4,3-c]pyridin-6-yl}-3-[(1S)-2-methoxy-1-phenylethyl]urea] | 27.2 nM
COc1ccccc1Nc1n[nH]c2cc(NC(=O)N[C@H](C)c3ccccc3)ncc12 [Example 121, 1-{3-[(2-methoxyphenyl)amino]-1H-pyrazolo[4,3-c]pyridin-6-yl}-3-[(1R)-1-phenylethyl]urea] | 24.5 nM
COC[C@@H](NC(=O)Nc1cc2[nH]nc(Nc3ccccc3OC)c2cn1)c1ccccc1 [Example 122, 1-{3-[(2-methoxyphenyl)-amino]-1H-pyrazolo[4,3-c]pyridin-6-yl}-3-[(1S)-2-methoxy-1-phenylethyl]urea] | 8.4 nM
C[C@@H](NC(=O)Nc1cc2[nH]nc(N3CCc4ncsc4C3)c2cn1)c1ccccc1 [Example 123, 1-[3-(6,7-dihydro[1,3]thiazolo-[5,4-c]pyridin-5(4H)-yl)-1H-pyrazolo[4,3-c]pyridin-6-yl]-3-[(1R)-1-phenylethyl]urea] | 0.4 nM
CC(C)(O)[C@@H](NC(=O)Nc1cc2[nH]nc(N3CCc4ncsc4C3)c2cn1)c1ccccc1 [Example 124, 1-[3-(6,7-dihydro[1,3]thiazolo-[5,4-c]pyridin-5(4H)-yl)-1H-pyrazolo[4,3-c]pyridin-6-yl]-3-[(1S)-2-hydroxy-2-methyl-1-phenylpropyl]urea] | 0.3 nM
CC(C)(O)[C@@H](NC(=O)Nc1cc2[nH]nc(N3CCc4ncsc4C3)c2cn1)c1ccc(F)cc1 [Example 125, 1-[3-(6,7-dihydro[1,3]thiazolo-[5,4-c]pyridin-5(4H)-yl)-1H-pyrazolo[4,3-c]pyridin-6-yl]-3-[(1S)-1-(4-fluorophenyl)-2-hydroxy-2-methylpropyl]urea] | 0.4 nM

Source: US9233979B2, “Compounds that are ERK inhibitors” (Merck Sharp & Dohme Corp., priority 2012, dated 2016)
